The record followed here is US4187216A, “Dipeptide derivatives” (Hoffmann-La Roche Inc., priority 1976, dated 1980).

The structures appear in SMILES notation. Counter-ions that a name gives are not always drawn. Residues, ends and D or L forms follow the SMILES beside them. *: point of attachment. pNA = O=[N+]([O-])c1ccc(N*)cc1; Tos = Cc1ccc(S(=O)(=O)*)cc1; Hexanoyl = CCCCCC(=O)*; Propionyl = CCC(=O)*; Tfa = O=C(C(F)(F)F)*; NHPh = c1ccc(N*)cc1

What is called Ki is a dissociation constant, usually derived from enzyme kinetics or from competition with a known ligand.

In assay [1] the target is T1, human granulocyte elastase (Homo sapiens, UniProt P08246).
T1 sequence (P08246 30-267): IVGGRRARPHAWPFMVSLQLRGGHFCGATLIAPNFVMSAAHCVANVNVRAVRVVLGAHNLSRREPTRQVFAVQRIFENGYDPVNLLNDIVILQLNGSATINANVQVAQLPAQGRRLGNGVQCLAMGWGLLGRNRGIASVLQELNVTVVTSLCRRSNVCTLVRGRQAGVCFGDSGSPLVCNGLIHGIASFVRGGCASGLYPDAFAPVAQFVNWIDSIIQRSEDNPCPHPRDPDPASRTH
Briefly: in vitro elastase inhibition, test method of Visser and Blout, human granulocyte elastase as enzyme. It counts as biochemical. The conditions noted are these: read-out: I50, concentration which gives 50% inhibition of the human granulocyte elastase. The text has this: Acta 268 (1972) 257, using human granulocyte elastase as the enzyme. The results obtained with representative dipeptide derivatives of formula I in this test are given in Table I hereinafter, the I50 being the concentration in millimoles per liter which gives 50% inhibition of the human granulocyte elastase: […]

The target in assay [2] is porcine pancreatic elastase (Sus scrofa, UniProt P00772). As to the kind of experiment: in vitro elastase inhibition, test method of Visser and Blout, porcine pancreatic elastase as enzyme. Type of assay: biochemical. The conditions noted are these: read-out: Ki, inhibitor constant.
Chain of porcine pancreatic elastase (P00772 27-266): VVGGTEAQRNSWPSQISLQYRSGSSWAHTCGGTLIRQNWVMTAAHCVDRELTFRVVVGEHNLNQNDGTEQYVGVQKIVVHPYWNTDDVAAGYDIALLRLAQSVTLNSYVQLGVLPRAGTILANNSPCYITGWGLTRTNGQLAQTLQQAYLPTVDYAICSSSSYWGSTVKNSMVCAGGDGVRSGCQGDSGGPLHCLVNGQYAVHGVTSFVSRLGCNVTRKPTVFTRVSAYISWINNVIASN

Turning to `CCCCCC(=O)N[C@@H](C)C(=O)N1CCC[C@H]1C(=O)Nc1ccccc1` [(N-Hexanoyl-L-alanyl-L-proline) anilide, N-Hexanoyl-L-alanyl-L-proline anilide] (Hexanoyl-Ala-Pro-NHPh), in assay [1], the IC50 stood at 800 µM.

With `C[C@H](NC(=O)CC12CC3CC(CC(C3)C1)C2)C(=O)N1CCC[C@H]1C(=O)Nc1ccccc1` [N-(1-Adamantylacetyl)-L-alanyl-L-proline anilide], the IC50 in assay [1] is 60 µM.

Regarding `C[C@H](NC(=O)C12CC3CC(CC(C3)C1)C2)C(=O)N1CCC[C@H]1C(=O)Nc1ccccc1` [N-(1-Adamantylcarbonyl)-L-alanyl-L-proline anilide], the IC50 in assay [1] is 600 µM.

For the compound `C[C@H](NS(=O)(=O)C12CC3CC(CC(C3)C1)C2)C(=O)N1CCC[C@H]1C(=O)Nc1ccccc1` [N-(1-Adamantylsulphonyl)-L-alanyl-L-proline anilide], the IC50 in assay [1] is 7 µM.

`Cc1ccc(S(=O)(=O)N[C@@H](C)C(=O)N2CCC[C@H]2C(=O)Nc2ccccc2)cc1` [N-(p-Toluenesulphonyl)-L-alanyl-L-proline anilide] (Tos-Ala-Pro-NHPh): the IC50 in assay [1] is 60 µM.

For the compound `C[C@H](NC(=O)OCc1ccccc1)C(=O)N1CCC[C@H]1C(=O)NC1CCCCC1` [N-Benzyloxycarbonyl-L-alanyl-L-proline cyclohexylamide], the IC50 in assay [1] worked out at 1000 µM.

With `CCCCCNC(=O)[C@@H]1CCCN1C(=O)[C@H](C)NC(=O)OCc1ccccc1` [N-Benzyloxycarbonyl-L-alanyl-L-proline n-pentylamide], the IC50 in assay [1] was roughly 5000 µM.

As for `CCC(=O)N[C@@H](C)C(=O)N[C@@H](C)C(=O)Nc1ccccc1` [N-Propionyl-L-alanyl-L-alanine anilide] (Propionyl-Ala-Ala-NHPh), the Ki in assay [2] was 40 µM.

Take `CCC(=O)N[C@@H](C)C(=O)N1CCC[C@H]1C(=O)Nc1ccc([N+](=O)[O-])cc1` [N-Propionyl-L-alanyl-L-proline 4-nitroanilide] (Propionyl-Ala-Pro-pNA): in assay [2], the Ki is 26 µM.

With `CCC(=O)N[C@@H](C)C(=O)N1CCC[C@H]1C(=O)Nc1ccccc1` [N-Propionyl-L-alanyl-L-proline anilide] (Propionyl-Ala-Pro-NHPh), in assay [2], the inhibition constant Ki is 40 µM.

For `CCC(=O)N[C@@H](C)C(=O)N1CCC[C@H]1C(=O)NC1CCCCC1` [N-Propionyl-L-alanyl-L-proline cyclohexylamide], in assay [2], the inhibition constant (Ki) was 20 µM.

In the case of `C[C@H](NC(=O)C(F)(F)F)C(=O)N1CCC[C@H]1C(=O)Nc1ccccc1` [N-Trifluoroacetyl-L-alanyl-L-proline anilide] (Tfa-Ala-Pro-NHPh), in assay [2], the Ki was determined as 1.4 µM.
